Where a SMILES comes first, the peptide text is derived from it. Where no end group is shown, it is not given here.
Columns and labels:
[1] = target: T1, GST-Cdk5.GST-Nck5a complex (Homo sapiens, UniProt Q00535); test: Peptide inhibition of Cdk5 kinase activity (histone H1 peptide, [γ-32P]ATP); assay type: biochemical; conditions: for inhibition of Cdk5 kinase activity (in words): GST-Cdk5.GST-Nck5a, FIG. 2 and 3A
T1 construct: made in house
Protocol: (§1) Peptide Inhibition of Cdk5 and Cdk2 Kinase Activity—Cdk5 kinase activity was assayed essentially as described previously, except that for each Cdk5 kinase reaction 1 μg of GST-Cdk5 was reconstituted with 2 μg of GST-Nck5a, and 1 μg of GST-Cdk2 was mixed with 3 μg of cyclin A-H6 in Cdk2 assays. The reconstituted complexes were added, in duplicate, to an assay mixture containing 30 mM MOPS, pH 7.4, 10 mM MgCl2, 40 μM of the histone H1 peptide, 50 μM [γ-^32P]ATP, and various concentrations of various peptides at 30° C. for 30 min before measuring the Cdk5 and Cdk2 kinase activities.

[2] = target: T2, GST-Cdk2-cyclin A-H6 complex (Homo sapiens, UniProt P24941); test: Peptide inhibition of Cdk2 kinase activity (histone H1 peptide, [γ-32P]ATP); assay type: biochemical; conditions: for inhibition of Cdk2 kinase activity (in words): GST-Cdk2.cyclin A-H6, FIG. 3B
T2 construct: made in house; host or cells: E. coli BL21(DE3) (cyclin A-H6); GST-Cdk2 not described
Protocol: The C-terminal histidine-tagged human cyclin A (cyclin A-H6) was expressed and purified in essentially the same manner as described for H6-Cdk5. Briefly, the expression plasmid pET21d containing a cyclin A gene lacking the N-terminal 173 amino acids was transformed into BL21(DE3) E. coli cells. The host cells were cultured in LB medium containing 100 μg/ml ampicillin, and cyclin A expression was induced by adding isopropyl-1-thio-β-D-galactopyranoside to a final concentration of 0.1 mM. The induction of cyclin A expression was for 3 h at 30° C. The pelleted cells were resuspended in 50 mM Tris-HCI, pH 7.5, 300 mM NaCl, and 0.05% Triton X-100, and then lysed in the French press. The subsequent purification of cyclin A using a Ni^2+-NTA column was carried out in a manner identical to that described for the purification of H6-Cdk5. The monomeric, active form of cyclin A-H6 was further purified by passing the cyclin A-H6-containing eluent through a Sephacryl S-200 gel filtration column (Amersham Pharmacia Biotech).
as §1

[3] = target: T3, H6-Cdk5.GST-Nck5a complex (Homo sapiens, UniProt Q00535); test: Peptide/Cdk binding assay: GSH-bead co-precipitation and Western blot of Cdk5; conditions: various amounts of peptide (5, 20, 50 μM; 1000-fold excess)
T3 construct: made in house; host or cells: Escherichia coli M15 (H6-Cdk5)
Protocol: Peptide/Cdk Binding Assay—H6-Cdk5 (about 3 μg) and 15 μg of GST-p25 were premixed in 300 μl of 1×phosphate-buffered saline with 0.5 mg/ml bovine serum albumin. Some 50-μl quantities of the mixture was taken out to mix with various concentrations of the αN peptide (from serial dilutions made from a 2.0 mM stock solution), and the total volume of the mixture was adjusted to 150 μl using Buffer R (1×phosphate-buffered saline containing 1 mM EDTA, 1 mM dithiothreitol, 0.6 mM phenylmethylsulfonyl fluoride, 1 μg/ml leupeptin, 1 μg/ml leupeptin, 1 μg/ml antipain, 5 mg/ml bovine serum albumin). The reaction mixture was incubated at 4° C for 15 h. GST-Nck5a-H6-Cdk5 complex was then precipitated by the addition of 40 μl of GSH-Sepharose beads pre-equilibrated with 1×phosphate-buffered saline (50%, v/v). The GSH-Sepharose beads were washed three times with 1×phosphate-buffered saline buffer, and subsequently resuspended in 20 μl of water and 20 μl of 2×protein sample treatment buffer. The co-precipitated H6-Cdk5 was detected by SDS-PAGE followed by Western blot using a monoclonal antibody against Cdk5.
To discriminate between these possibilities, we performed direct binding competition experiments. […] The amount of H6-Cdk5 in complex with GST-Nck5a was determined by Western blotting of the enzyme co-precipitated by GSH-agarose beads. […]

[4] = target: T2, GST-Cdk2-cyclin A-H6 complex; test: Peptide/Cdk binding assay: GSH-bead co-precipitation and Western blot of cyclin A; conditions: various amounts of peptide (0.5, 2, 10 μM; 1000-fold excess)
Protocol: The binding of the αN peptide to the GST-Cdk2-cyclin A-H6 complex was studied in a similar manner to that described above for H6-Cdk5. Briefly, 3 μg of GST-Cdk2 and 10 μg of cyclin A-H6 were reconstituted in Buffer R with various concentrations of the αN peptide at 4° C. for 15 h. GST-Cdk2 was then precipitated by the addition of 20 μl of GSH-Sepharose beads. After washing, the co-precipitated cyclin A-H6 was detected by SDS-PAGE followed by Western blot using a monoclonal antibody against cyclin A (Santa Cruz).
To discriminate between these possibilities, we performed direct binding competition experiments. Various concentrations of the peptides were added to a H6-Cdk5.GST-Nck5a mixture, and GST-Nck5a was then precipitated using GSH-agarose beads. The amount of H6-Cdk5 in complex with GST-Nck5a was determined by Western blotting of the enzyme co-precipitated by GSH-agarose beads. The amount of H6-Cdk5 and cyclin A-H6 used in the experiment described in FIG. 4, A and B, were chosen to ensure that their respective antibodies would be in excess.

[5] = target: T1, GST-Cdk5.GST-Nck5a complex; test: Steady state kinetic analysis of Cdk5 inhibition (double reciprocal and Dixon plots); assay type: biochemical
Protocol: as §1
Steady State Kinetic Experiments—All assay conditions were the same as in the inhibition assay described above, except that the reaction time was kept at 15 min so that the product formed was less than 5% of the total substrate concentration used. To determine suitable concentrations of the substrate and the inhibitor for the steady state kinetic experiments, the Km value of GST-Cdk5.GST-Nck5a complex and a concentration-dependent inhibition profile of the enzyme by the αN peptide were determined. Four different concentrations of the histone H1 peptide (7.5, 10, 15, and 30 μM) were used in the kinetic analysis of the enzyme inhibition. For each substrate concentration, four concentrations of the αN peptide (0, 10, 20, and 30 μM) were used in the inhibition assay.

[6] = listed as Nck5a-derived peptide

T1 sequence (Q00535 whole entry): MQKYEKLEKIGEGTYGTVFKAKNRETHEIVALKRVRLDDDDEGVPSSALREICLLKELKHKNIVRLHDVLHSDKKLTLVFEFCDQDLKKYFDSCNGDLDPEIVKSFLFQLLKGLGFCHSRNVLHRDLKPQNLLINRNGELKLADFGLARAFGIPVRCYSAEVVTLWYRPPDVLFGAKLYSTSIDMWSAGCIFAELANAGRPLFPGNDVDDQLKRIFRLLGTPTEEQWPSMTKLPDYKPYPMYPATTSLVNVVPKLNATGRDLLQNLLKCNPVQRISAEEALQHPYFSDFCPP
T1 sequence (Q15078 99-307 partner limits assumed): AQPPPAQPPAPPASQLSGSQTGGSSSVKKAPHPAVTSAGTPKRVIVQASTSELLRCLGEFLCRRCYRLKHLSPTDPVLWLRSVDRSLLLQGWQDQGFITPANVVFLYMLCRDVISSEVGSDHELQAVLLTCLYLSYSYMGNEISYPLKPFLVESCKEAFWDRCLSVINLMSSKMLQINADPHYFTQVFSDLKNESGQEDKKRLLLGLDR
T3 sequence (Q00535 whole entry): as the sequence (Q00535 whole entry) above
T3 sequence (Q15078 99-307 partner limits assumed): as the sequence (Q15078 99-307 partner limits assumed) above

CC(C)C[C@H](NC(=O)[C@H](CS)NC(=O)[C@H](CCCNC(=N)N)NC(=O)[C@H](CC(C)C)NC(=O)[C@H](CC(C)C)NC(=O)[C@H](CCC(=O)O)NC(=O)[C@H](CO)NC(=O)[C@@H](NC(=O)[C@H](CO)NC(=O)[C@H](C)N)[C@@H](C)O)C(=O)NCC(=O)N[C@@H](CCC(=O)O)C(=O)N[C@@H](Cc1ccccc1)C(=O)N[C@@H](CC(C)C)C(=O)N[C@@H](CS)C(=O)N[C@@H](CCCNC(=N)N)C(=O)N[C@@H](CCCNC(=N)N)C(=O)N[C@@H](CS)C(=O)N[C@@H](Cc1ccc(O)cc1)C(=O)N[C@@H](CCCNC(=N)N)C(=O)N[C@@H](CC(C)C)C(=O)N[C@@H](CCCCN)C(=O)N[C@@H](Cc1c[nH]cn1)C(=O)N[C@@H](CC(C)C)C(=O)N[C@@H](CO)C(=O)N1CCC[C@H]1C(=O)N[C@H](C(=O)N[C@@H](CC(=O)O)C(=O)O)[C@@H](C)O [αN peptide] (H-ASTSELLRCLGEFLCRRCYRLKHLSPTD-OH; N-terminus and C-terminus assumed)
inhibition at 5 µM ([1]; 5 μM peptide, heading: inhibition of Cdk5 activity): 10% | inhibition at 20 µM ([1]; 20 μM peptide): 50% | inhibition at 50 µM ([1]; 50 μM peptide): 90% | inhibition of Cdk5 activity ([1]; 50 μM peptide): about 90% | effect of a large excess of GST-Nck5a on Cdk5 inhibition by the peptide ([1]; 50 μM peptide, 2, 20, 40 μg GST-p25 with 1 μg GST-Cdk5): no significant effect | inhibition at 0.5 µM ([2]; 0.5 μM peptide): 10% | inhibition at 2 µM ([2]; 2 μM peptide): 50% | inhibition at 10 µM ([2]; 10 μM peptide): 90% | inhibition of Cdk2 kinase activity (in words) [2]: even higher potency than in the case with Cdk5.Nck5a inhibition | dissociation of Nck5a from Cdk5 on addition of peptide [3]: did not lead to a dissociation of GST-Nck5a from H6-Cdk5 | dissociation of Nck5a from Cdk5 on addition of peptide [3, 6]: does not lead to the dissociation of Nck5a from Cdk5 | dissociation of cyclin A from Cdk2 on addition of peptide [4]: formation of a ternary complex | dissociation of cyclin A from Cdk2 on addition of peptide [4, 6]: does not lead to the dissociation of Nck5a from Cdk5 or cyclin A from Cdk2 | inhibition of the kinase by an excess amount of peptide ([5]; 400 μM peptide, data not shown): near complete inhibition | mode of inhibition with respect to the substrate (histone H1 peptide) ([5]; double-reciprocal plot): noncompetitive inhibitor

GST-αN: GST fusion mutant containing a 29-residue peptide fragment corresponding to residues Gln145 to Asp173 of Nck5a (QASTSELLRCLGEFLCRRCYRLKHLSPTD; cysteine pairing not given here; also: fused to GST)
inhibition of Cdk5 kinase activity (in words) [1]: inhibit Cdk5 kinase activity in a dose-dependent manner | Cdk5 kinase activity inhibited ([1]; GST-αN concentration of 5 μM): About 50% | inhibition of Cdk2 kinase activity (in words) [2]: also inhibited the kinase activity of Cdk2

DYHDIHTYLREMEVKPKPKVGYMKKQPDIT (DYHEDIHTYLREMEVKCKPKVGYMKKQPDIT; listed as Homo sapiens) [cyclin A peptide, 31-residue peptide corresponding to Asp177 to Thr207 of human cyclin A, the N-terminal alpha-helix, reference compound]
inhibition of Cdk5 kinase activity (in words) [1]: inhibited neither GST-Cdk5.GST-Nck5a nor GST-Cdk2.cyclin A-H6 | inhibition of Cdk2 kinase activity (in words) [2]: inhibited neither GST-Cdk5.GST-Nck5a nor GST-Cdk2.cyclin A-H6
